Data on nine compounds can be found in patent US20050064510A1, “Ligand analysis” (priority 2003, published 2005).

In the first experiment the target is T1, muscarinic acetylcholine receptor M2 (Cavia porcellus, UniProt H0VRN8).
T1 sequence (H0VRN8 1-466): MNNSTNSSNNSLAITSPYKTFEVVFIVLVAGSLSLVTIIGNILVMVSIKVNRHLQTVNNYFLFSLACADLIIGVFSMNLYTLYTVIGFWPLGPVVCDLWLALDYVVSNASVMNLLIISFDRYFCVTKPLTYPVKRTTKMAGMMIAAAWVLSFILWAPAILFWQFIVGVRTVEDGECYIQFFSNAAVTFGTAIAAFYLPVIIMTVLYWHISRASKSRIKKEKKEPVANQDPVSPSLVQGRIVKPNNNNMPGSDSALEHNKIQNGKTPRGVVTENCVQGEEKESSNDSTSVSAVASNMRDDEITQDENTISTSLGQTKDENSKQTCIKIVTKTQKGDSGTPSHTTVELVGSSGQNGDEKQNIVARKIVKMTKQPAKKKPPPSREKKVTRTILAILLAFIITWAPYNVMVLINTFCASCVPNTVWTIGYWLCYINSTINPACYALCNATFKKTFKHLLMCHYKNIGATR
Kind of experiment: Tissue-based assay for M2 antagonism.
Details: not given
Regarding `O=C(N[C@H]1CCCC[C@@H]1OCc1ccccc1)c1coc(-c2ccc(C(=O)N3CCC(N4CCCC4)CC3)cc2)n1` [NGD-3350], the “activity in tissue” value is “significant activity”.

For a further experiment, the target named is T2, Serine Kinase Zap-70 (Homo sapiens, UniProt P43403).
T2 sequence (P43403 1-619): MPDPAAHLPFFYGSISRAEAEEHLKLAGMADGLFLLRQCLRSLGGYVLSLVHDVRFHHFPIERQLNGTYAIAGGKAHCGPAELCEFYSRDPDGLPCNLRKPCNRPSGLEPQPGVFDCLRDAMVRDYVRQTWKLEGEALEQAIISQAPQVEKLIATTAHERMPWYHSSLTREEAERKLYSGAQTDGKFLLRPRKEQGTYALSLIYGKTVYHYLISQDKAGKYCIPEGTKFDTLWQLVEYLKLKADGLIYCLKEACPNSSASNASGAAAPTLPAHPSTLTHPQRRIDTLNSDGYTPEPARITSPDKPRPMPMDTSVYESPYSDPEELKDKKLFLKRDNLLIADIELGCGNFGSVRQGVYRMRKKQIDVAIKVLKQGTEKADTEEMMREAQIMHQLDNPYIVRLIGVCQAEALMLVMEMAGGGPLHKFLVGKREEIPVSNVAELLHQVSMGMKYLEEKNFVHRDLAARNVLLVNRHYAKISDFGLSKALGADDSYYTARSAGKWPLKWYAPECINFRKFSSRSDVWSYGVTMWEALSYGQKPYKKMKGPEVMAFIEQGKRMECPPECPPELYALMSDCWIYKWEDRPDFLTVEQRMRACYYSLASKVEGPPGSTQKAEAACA
Put plainly: AS-MS dissociation kinetics after quench with excess Staurosporine. The class given is binding. As to conditions: read-out: Dissociation rate ks2 (converted). The method, then:
A mixture of 9 μM Zap-70 and 1 μM NGD-6380 is prepared and incubated at room temperature for 30 minutes, a time sufficient for the mixture to reach equilibrium of bound and unbound components. […] The resulting dissociation of NGD-6380 is measured over time at intervals of 20, 30, 40, 60, 70, 80, and 100 minutes. The dissociation of NGD-6380 is measured in the following manner. […] Any amount of NGD-6380 which is not bound to the Zap-70 is separated from the Zap-70-NGD-6380 complex by the size exclusion step. […] Thus, the dissociation of […] is seen by the decreasing amount of the signal response of the NGD-6380 over time. The decrease in the signal response of the NGD-6380 is plotted as a function of time and the experimental data is fit to the exponential decay function of formula (XVIII) using the program Mathematical (Wolfram Research Inc., version 4.1). [ES]=[ES]0e^-ks2·t formula (XVIII) A mixture of 9 μM Zap-70 and 1 μM of a mixture of the ligands depicted in Table 3 is prepared and incubated at room temperature for 30 minutes, a time sufficient for the mixture to reach equilibrium of bound and unbound components. […] The decrease in the signal response of the ligands is plotted as a function of time and the experimental data is fit to the exponential decay function of formula (XVIII) using the program Mathematica®. [ESi]=[[…] formula (XVIII)
`CCN(Cc1ccccc1)c1cc(C(=O)N2CCC[C@H]2CN2CCCC2)c2cc(-c3ccc4c(c3)OCO4)ccc2n1` [NGD-6423]: the koff was 6.5e-05 s⁻¹. On the same count and under the same terms, the value for `CC(CNc1cc(C(=O)N2CCC[C@H]2CN2CCCC2)c2cc(-c3ccc4c(c3)OCO4)ccc2n1)c1ccccc1` (stereo partly drawn) [NGD-6390] was 0.00021 s⁻¹; that for `CN(Cc1ccccc1)c1cc(C(=O)N2CCC[C@H]2CN2CCCC2)c2cc(-c3ccc4c(c3)OCO4)ccc2n1` [NGD-6073] was 0.000117 s⁻¹. On the same count and under the same terms, the same measure for `O=C(c1cc(NCc2ccc(Cl)cc2)nc2ccc(-c3ccc4c(c3)OCO4)cc12)N1CCC[C@H]1CN1CCCC1` [NGD-6371]: 0.000275 s⁻¹; for `O=C(c1cc(NCc2ccc(C(F)(F)F)cc2)nc2ccc(-c3ccc4c(c3)OCO4)cc12)N1CCC[C@H]1CN1CCCC1` [NGD-6380]: 0.000138 s⁻¹. On to `O=C(c1cc(NCc2ccc(C(F)(F)F)cc2)nc2ccc(-c3ccc4c(c3)OCCO4)cc12)N1CCC[C@H]1CN1CCCC1` [NGD-6862], for which the koff was 0.000107 s⁻¹.

In the case of `CN(Cc1ccc(Cl)c(Cl)c1)c1cc(C(=O)N2CCC[C@H]2CN2CCCC2)c2cc(-c3ccc4c(c3)OCO4)ccc2n1` [NGD-6432], the koff was 0.000117 s⁻¹. `O=C(c1cc(NCc2cccc(F)c2)nc2ccc(-c3ccc4c(c3)OCO4)cc12)N1CCC[C@H]1CN1CCCC1` [NGD-6367]: the koff was 0.000493 s⁻¹.
